What all share (type): cell-based
One test relates to Escherichia coli NIHJ. The test is described as follows: MIC, plate method, standard strains. The following applies: unit assumed; for MIC Escherichia coli NIHJ: Table 4, standard strain. The protocol:
(§1) The minimum inhibitory concentration (MIC) was determined by the plate method disclosed in "Chemotherapy" (Japan), Vol. 16, (1968), pages 98-99. The culture medium used was a Heart infusion agar (pH 7.4). The number of the cells per plate used in the inoculum was 10^4 (10^6 cells/ml).

The next test deals with Klebsiella pneumoniae. Kind of test: MIC, plate method, standard strains. As to conditions: unit assumed. How it is done: as §1
For another test, the system named is Proteus vulgaris 3027. The test is described as follows: MIC, plate method, standard strains. As to conditions: unit assumed. The protocol:
as §1

Test [1] has as its system Pseudomonas aeruginosa I.F.O. The test is described as follows: MIC, plate method, standard strains. The following applies: unit assumed; for MIC Pseudomonas aeruginosa I.F.O.: Table 4, standard strain; for MIC Pseudomonas aeruginosa I.F.C: Table 3, standard strain. The protocol: as §1
The subject of test [2] is Staphylococcus aureus 209p. Kind of test: MIC, plate method, standard strains. The following applies: unit assumed. How it is done:
as §1

A further test deals with Staphylococcus aureus. Kind of test: MIC against clinical isolates. The following applies: Table 5-1, clinical isolate; unit assumed.
In another test the test system is Escherichia coli. The test is described as follows: MIC against clinical isolates. The following applies: Table 5-2, clinical isolate; unit assumed.
Another test relates to Shigella flexneri. Kind of test: MIC against clinical isolates. The following applies: Table 5-5, clinical isolate; unit assumed. The protocol:
as §1
(§2) MIC was determined in the same manner as in the preceding paragraph (1).

Another test relates to Shigella sonnei. Kind of test: MIC against clinical isolates. The following applies: Table 5-5, clinical isolate; unit assumed. The protocol: as §1, §2
In a further test the test system is Proteus mirabilis. Kind of test: MIC against clinical isolates. The following applies: Table 5-6, clinical isolate; unit assumed.
In another test the test system is Proteus morganii. The test is described as follows: MIC against clinical isolates. The following applies: Table 5-6, clinical isolate; unit assumed.

Values after ≈ are worked out from the molar mass of the structure shown. Where a name gives a salt, the structure may show the parent alone.

With `CCN1CCN(C(=O)NC(C(=O)NC2C(=O)N3C(C(=O)O)=C(COC)CSC23)c2ccccc2)C(=O)C1=O` (single isomer, unassigned) [compound 80], the MIC Escherichia coli NIHJ with Escherichia coli NIHJ is less than 0.1 µg/mL. Further, in the test on Klebsiella pneumoniae (Table 4, standard strain), the MIC Klebsiella pneumoniae amounted to 3.13 µg/mL (≈ 5.74 µM). The MIC Proteus vulgaris 3027 in the test on Proteus vulgaris 3027 (Table 4, standard strain) was found to be 6.25 µg/mL (≈ 11.5 µM). Besides, the MIC Pseudomonas aeruginosa I.F.O. in test [1] was determined as 50 µg/mL (≈ 91.6 µM). In test [2] (Table 4, standard strain), this molecule showed an MIC Staphylococcus aureus 209p of 0.79 µg/mL (≈ 1.45 µM).
In the test on Staphylococcus aureus, `CC1(C)S[C@@H]2[C@H](NC(=O)[C@H](N)c3ccccc3)C(=O)N2[C@H]1C(=O)O` [Sodium Ampicillin, reference compound] yielded an MIC Staphylococcus aureus MS 8588 of 6.25 µg/mL, an MIC Staphylococcus aureus MS 8596 of 1.56 µg/mL, an MIC Staphylococcus aureus MS 8684 of 1.56 µg/mL and an MIC Staphylococcus aureus MS 8713 of 3.13 µg/mL. Also, in the test with Escherichia coli, the MIC Escherichia coli GN 3435 amounted to 3.13 µg/mL, the MIC Escherichia coli GN 3452 was found to be 6.25 µg/mL, the MIC Escherichia coli GN 3481 is 6.25 µg/mL and the MIC Escherichia coli K-1 amounted to 6.25 µg/mL. The molecule further came in with an MIC Escherichia coli K-2 in the test with Escherichia coli of 6.25 µg/mL. Besides, the MIC Shigella flexneri JS 11839 with Shigella flexneri was determined as 1.57 µg/mL. In the test with Shigella sonnei, this molecule returned an MIC Shigella sonnei JS 11232 of more than 200 µg/mL and an MIC Shigella sonnei JS 11755 of 6.25 µg/mL. In the test with Proteus mirabilis, the MIC Proteus mirabilis was less than 1.57 µg/mL. Besides, in the test with Proteus morganii, the MIC Proteus morganii is less than 1.57 µg/mL.
Regarding `CCCCN1CCN(C(=O)N[C@@H](C(=O)N[C@@H]2C(=O)N3[C@@H]2SC(C)(C)[C@@H]3C(=O)O)c2ccccc2)C(=O)C1` [Compound 14], in the test with Escherichia coli NIHJ (Table 3, standard strain), the MIC Esche--richin coil NIHJ is less than 1.57 µg/mL. In the test on Klebsiella pneumoniae (Table 3, standard strain), this molecule returned an MIC Klebsiella pneumoniae of 3.13 µg/mL (≈ 5.89 µM). The MIC Proteus vulgaris 3027 against Proteus vulgaris 3027 (Table 3, standard strain) was less than 1.57 µg/mL. In test [2] (Table 3, standard strain, Heart infusion agar pH 7.4), this molecule displayed an MIC Staphylococcus aureus 209p of less than 1.57 µg/mL. Further, in the test with Staphylococcus aureus, the MIC Staphylococcus aureus F-2 stood at 1.57 µg/mL (≈ 2.95 µM), the MIC Staphylococcus aureus F-4 was found to be 6.25 µg/mL (≈ 11.8 µM), the MIC Staphylococcus aureus MS 8588 turned out to be 3.13 µg/mL (≈ 5.89 µM) and the MIC Staphylococcus aureus MS 8596 came out at 3.13 µg/mL (≈ 5.89 µM). In the test with Staphylococcus aureus, this molecule had an MIC Staphylococcus aureus MS 8684 of 3.13 µg/mL (≈ 5.89 µM) and an MIC Staphylococcus aureus MS 8713 of 3.13 µg/mL (≈ 5.89 µM). In the test with Escherichia coli, this molecule showed an MIC Escherichia coli GN 3435 of 6.25 µg/mL (≈ 11.8 µM), an MIC Escherichia coli GN 3452 of 6.25 µg/mL (≈ 11.8 µM), an MIC Escherichia coli GN 3481 of 6.25 µg/mL (≈ 11.8 µM) and an MIC Escherichia coli K-1 of 3.13 µg/mL (≈ 5.89 µM). Also, the MIC Escherichia coli K-4 in the test with Escherichia coli worked out at 6.25 µg/mL (≈ 11.8 µM). Also, in the test on Shigella flexneri, the MIC Shigella flexneri JS 11215 was 25 µg/mL (≈ 47 µM) and the MIC Shigella flexneri JS 11839 was 3.13 µg/mL (≈ 5.89 µM). Moreover, in the test on Shigella sonnei, the MIC Shigella sonnei JS 11232 is 25 µg/mL (≈ 47 µM) and the MIC Shigella sonnei JS 11755 turned out to be 6.25 µg/mL (≈ 11.8 µM).
The molecule `CC(=O)OCC1=C(C(=O)O)N2C(=O)[C@@H](NC(=O)Cc3cccs3)[C@H]2SC1` [drawing 248, reference compound] showed an MIC Escherichia coli NIHJ with Escherichia coli NIHJ of less than 1.57 µg/mL. In the test on Klebsiella pneumoniae (Table 4, standard strain), this molecule returned an MIC Klebsiella pneumoniae of less than 1.57 µg/mL. In the test on Proteus vulgaris 3027 (Table 4, standard strain), this molecule returned an MIC Proteus vulgaris 3027 of 100 µg/mL (≈ 252 µM). In test [1], this molecule showed an MIC Pseudomonas aeruginosa I.F.O. of more than 200 µg/mL. In [2] (Table 4, standard strain), this molecule showed an MIC Staphylococcus aureus 209p of less than 1.57 µg/mL.
`O=C(Cc1cccs1)N[C@@H]1C(=O)N2C(C(=O)[O-])=C(C[n+]3ccccc3)CS[C@H]12` [drawing 250, reference compound]: in the test on Escherichia coli NIHJ, the MIC Escherichia coli NIHJ was more than 3.13 µg/mL. In the test with Klebsiella pneumoniae (Table 4, standard strain), this molecule returned an MIC Klebsiella pneumoniae of 3.13 µg/mL (≈ 7.53 µM). The MIC Proteus vulgaris 3027 against Proteus vulgaris 3027 (Table 4, standard strain) was 200 µg/mL (≈ 481 µM). This molecule also came in with an MIC Pseudomonas aeruginosa I.F.O. in [1] of 200 µg/mL (≈ 481 µM). Further, the MIC Staphylococcus aureus 209p in [2] (Table 4, standard strain) was less than 1.57 µg/mL.
In the case of `CC1(C)S[C@@H]2[C@H](NC(=O)[C@H](NC(=O)N3CCN(C(=O)c4ccc(Cl)cc4)CC3=O)c3ccccc3)C(=O)N2[C@H]1C(=O)O` [Compound 8], in the test with Proteus vulgaris 3027 (Table 3, standard strain), the MIC Proteus vulgaris 3027 came to 3.13 µg/mL (≈ 5.1 µM). In test [1], this molecule displayed an MIC Pseudomonas aeruginosa I.F.C of 100 µg/mL (≈ 163 µM).
In turn, `CC1(C)S[C@@H]2[C@H](NC(=O)[C@H](NC(=O)N3CC(=O)N(Cc4ccccc4)CC3=O)c3ccccc3)C(=O)N2[C@H]1C(=O)O` [Compound 35] registered an MIC Pseudomonas aeruginosa I.F.C in [1] of 100 µg/mL (≈ 173 µM).
In the test on Staphylococcus aureus, `CC(=O)N1CCN(C(=O)N[C@@H](C(=O)N[C@@H]2C(=O)N3[C@@H]2SC(C)(C)[C@@H]3C(=O)O)c2ccccc2)C(=O)C1` [Example 1, sodium salt of 6-[D(-)-α-(4-acetyl-2-oxo-1-piperazinocarbonylamino)phenylacetamido]penicillanic acid] came in with an MIC Staphylococcus aureus F-1 of 12.5 µg/mL, an MIC Staphylococcus aureus F-2 of 3.13 µg/mL, an MIC Staphylococcus aureus F-4 of 6.25 µg/mL and an MIC Staphylococcus aureus MS 8588 of 6.25 µg/mL. Besides, in the test on Staphylococcus aureus, the MIC Staphylococcus aureus MS 8596 was determined as 3.13 µg/mL, the MIC Staphylococcus aureus MS 8684 was 3.13 µg/mL and the MIC Staphylococcus aureus MS 8713 is 3.13 µg/mL. In the test on Escherichia coli, this molecule showed an MIC Escherichia coli GN 3435 of 6.25 µg/mL, an MIC Escherichia coli GN 3452 of 12.5 µg/mL, an MIC Escherichia coli GN 3481 of 12.5 µg/mL and an MIC Escherichia coli K-1 of 6.25 µg/mL. Also, the MIC Escherichia coli K-4 in the test on Escherichia coli came to 12.5 µg/mL. In the test on Shigella flexneri, this molecule displayed an MIC Shigella flexneri JS 11215 of 100 µg/mL and an MIC Shigella flexneri JS 11839 of 3.13 µg/mL. In the test on Shigella sonnei, this molecule registered an MIC Shigella sonnei JS 11232 of more than 200 µg/mL and an MIC Shigella sonnei JS 11755 of 12.5 µg/mL.
